Data published in patent US20210395313A1, “PEPTIDE PAC1 ANTAGONISTS” (AMGEN INC., priority 2017, published 2021).
pIC50: −log10 of the molar value. Where a SMILES comes first, the peptide text is derived from it. Bridges are numbered along the chain shown (N, C = ends).

What follows are compounds tested against T1, rat PAC1 receptor (Rattus norvegicus, UniProt P32215) (assay: LANCE Ultra cAMP accumulation antagonist assay in RG-2 cells;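 note: RG-2 rat glioma cells endogenously expressing PAC1, test peptide preincubated 30 min, then PAC1 agonist added at its EC80 for 15 min, cAMP accumulation read by LANCE Ultra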).
T1 construct: SHSY-5Y (human neuroblastoma cell line) and RG-2 (rat glioma cell line) cells endogenously express human and rat PAC1 receptors, respectively; endogenous in cells; host or cells: RG-2 rat glioma cells
T1 sequence (P32215 20-523): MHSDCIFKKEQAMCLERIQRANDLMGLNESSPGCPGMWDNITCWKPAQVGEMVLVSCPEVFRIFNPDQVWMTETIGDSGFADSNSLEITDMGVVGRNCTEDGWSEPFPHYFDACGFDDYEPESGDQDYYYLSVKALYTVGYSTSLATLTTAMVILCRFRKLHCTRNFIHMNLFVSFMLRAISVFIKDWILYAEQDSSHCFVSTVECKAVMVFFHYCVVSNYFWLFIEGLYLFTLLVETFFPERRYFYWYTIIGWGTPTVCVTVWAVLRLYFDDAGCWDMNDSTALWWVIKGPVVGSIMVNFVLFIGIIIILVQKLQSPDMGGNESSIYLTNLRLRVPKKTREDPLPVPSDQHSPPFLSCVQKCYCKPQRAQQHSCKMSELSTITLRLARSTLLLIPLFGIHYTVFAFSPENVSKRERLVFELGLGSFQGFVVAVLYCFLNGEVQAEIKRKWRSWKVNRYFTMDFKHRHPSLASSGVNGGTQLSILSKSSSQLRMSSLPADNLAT
Assay type: cell-based
Method: In order to determine the potency of peptide antagonists at the PAC1 receptor, functional cAMP accumulation assays using LANCE Ultra cAMP assay kit to measure the agonist and antagonist activity of PAC1 peptides were used. SHSY-5Y (human neuroblastoma cell line) and RG-2 (rat glioma cell line) cells endogenously express human and rat PAC1 receptors, respectively. Agonist activity of PAC1 peptides was tested by incubating with SHSY-5Y at 2,000 cells per well or RG-2 at 5,000 cells per well for 15 minutes at room temperature. PAC1 receptor agonist PACAP38 or maxadilan was included as a positive control. The reaction was stopped by adding detection mixture, europium (Eu) chelate-labeled cAMP tracer and cAMP-specific monoclonal antibodies labeled with the ULight™ dye, to all wells followed by a 60-minute incubation at room temperature. The assay plates were then read on an EnVision instrument at an emission wavelength of 665 and 615 nm and data were analyzed using Genedata Screener or GraphPad Prism software. A similar procedure was used in the antagonist assays by using a fixed concentration of PAC1 agonist. The concentrations of agonists were chosen based on their ECK) values at PAC1 receptors in SHSY-5Y or RG-2 cells. SHSY-5Y or RG-2 cells were added into 96-well half-area white plates. Serially diluted PAC1 peptides at ten concentrations were added and incubated for 30 minutes at room temperature. PAC1 agonist at EC80 concentration was then added and further incubated for 15 minutes at room temperature. The reaction was stopped by adding detection mixture to all wells followed by a 60-minute incubation at room temperature. The assay plates were read and analyzed the same way as that of agonist assay. Cells, agonists, and PAC1 peptides were prepared in freshly made assay buffer (F-12, 0.5 mM IBMX, 0.1 or 0.4% BSA (pH 7.4)). Detection mixture was made by mixing a 1/50 dilution of the Eu-cAMP tracer stock solution in cAMP Detection Buffer and a 1/150 dilution of the ULight-anti-cAMP stock solution in cAMP Detection Buffer. Europium (Eu) chelate-labeled cAMP tracer, cAMP-specific monoclonal antibodies labeled with the ULight™ dye, BSA, and detection buffer were provided in LANCE Ultra cAMP Kit from PerkinElmer

First: CC[C@H](C)[C@@H]1NC(=O)[C@@H](NC(=O)[C@H](CCCCN)NC(=O)[C@H](CCCNC(=N)N)NC(=O)[C@H](Cc2ccccc2)NC(=O)[C@H](CCC(N)=O)NC(=O)[C@H](CO)NC(=O)[C@@H](NC(=O)[C@H](C)NC(=O)[C@H](CC(=O)O)NC(=O)[C@@H](N)CO)[C@@H](C)O)CSSC[C@@H](C(=O)N[C@@H](CCCCN)C(=O)N[C@@H](CCC(N)=O)C(=O)N[C@@H](CCCCN)C(=O)N[C@@H](CCCCN)C(=O)N[C@@H](CCCCN)C(=O)N[C@@H](CCC(=O)O)C(=O)N[C@@H](Cc2c[nH]c3ccccc23)C(=O)N[C@@H](CCCCN)C(=O)N[C@@H](C)C(=O)NCC(=O)N[C@@H](Cc2c[nH]cn2)C(=O)O)NC(=O)[C@H](CO)NC(=O)[C@H](C)NC(=O)[C@H](CCCCN)NC(=O)[C@H](Cc2ccccc2)NC(=O)[C@H](C)NC(=O)CNC(=O)[C@H](CO)NC(=O)[C@H](CC(=O)O)NC(=O)[C@H](CC(=O)O)NC1=O [compound 441] (H-SDATSQFRKCIDDSGAFKASCKQKKKEWKAGH-OH; disulfide 10-21)
Second: CC[C@H](C)[C@H](NC(=O)[C@H](C)NC(=O)[C@H](CCCCN)NC(=O)[C@H](CCCNC(=N)N)NC(=O)[C@H](Cc1ccccc1)NC(=O)[C@H](CCC(N)=O)NC(=O)[C@@H]1CSSC[C@H](N)C(=O)N[C@@H](CC(=O)O)C(=O)N[C@@H](C)C(=O)N[C@@H]([C@@H](C)O)C(=O)N1)C(=O)N[C@@H](CC(=O)O)C(=O)N[C@@H](CC(=O)O)C(=O)N[C@H]1CSSC[C@@H](C(=O)N[C@@H](CCSC)C(=O)N[C@@H](CCCCN)C(=O)N[C@@H](CCC(N)=O)C(=O)N[C@@H](CCCCN)C(=O)N[C@@H](CCCCN)C(=O)N[C@@H](CCCCN)C(=O)N[C@@H](CCC(=O)O)C(=O)N[C@@H](Cc2c[nH]c3ccccc23)C(=O)N[C@@H](CCCCN)C(=O)N[C@@H](C)C(=O)NCC(=O)N[C@@H](Cc2c[nH]cn2)C(=O)O)NC(=O)[C@H](C)NC(=O)[C@H](CCCCN)NC(=O)[C@H](Cc2ccccc2)NC(=O)[C@H](C)NC(=O)[C@H](C)NC1=O [compound 443] (H-CDATCQFRKAIDDCAAFKACMKQKKKEWKAGH-OH; disulfide 1-5, 14-20)
The pIC50 of the first is higher: 7.00 to 9.00 for the first, less than 7.00 for the second.

Going from CC[C@H](C)[C@@H]1NC(=O)[C@H](C)NC(=O)[C@H](CCCCN)NC(=O)[C@H](CCCNC(=N)N)NC(=O)[C@H](Cc2ccccc2)NC(=O)[C@H](CCC(N)=O)NC(=O)[C@H](CO)NC(=O)[C@H]([C@@H](C)O)NC(=O)[C@H](C)NC(=O)[C@H](CC(=O)O)NC(=O)[C@@H](N)CSSC[C@@H](C(=O)N[C@@H](Cc2c[nH]cn2)C(=O)O)NC(=O)[C@H](C)NC(=O)[C@H](CCCCN)NC(=O)[C@H](Cc2c[nH]c3ccccc23)NC(=O)[C@H](CCC(=O)O)NC(=O)[C@H](CCCCN)NC(=O)[C@H](CCCCN)NC(=O)[C@H](CCCCN)NC(=O)[C@H](CCC(N)=O)NC(=O)[C@H](CCCCN)NC(=O)[C@H](CCSC)NC(=O)[C@H](CO)NC(=O)[C@H](C)NC(=O)[C@H](CCCCN)NC(=O)[C@H](Cc2ccccc2)NC(=O)[C@H](C)NC(=O)[C@H](CO)NC(=O)[C@H](CC(=O)O)NC(=O)[C@H](CC(=O)O)NC1=O [compound 442] (H-CDATSQFRKAIDDSAFKASMKQKKKEWKACH-OH; disulfide 1-30) to CC[C@H](C)[C@H](NC(=O)[C@H](C)NC(=O)[C@H](CCCCN)NC(=O)[C@H](CCCNC(=N)N)NC(=O)[C@H](Cc1ccccc1)NC(=O)[C@H](CCC(N)=O)NC(=O)[C@@H]1CSSC[C@H](N)C(=O)N[C@@H](CC(=O)O)C(=O)N[C@@H](C)C(=O)N[C@@H]([C@@H](C)O)C(=O)N1)C(=O)N[C@@H](CC(=O)O)C(=O)N[C@@H](CC(=O)O)C(=O)N[C@H]1CSSC[C@@H](C(=O)N[C@@H](CCSC)C(=O)N[C@@H](CCCCN)C(=O)N[C@@H](CCC(N)=O)C(=O)N[C@@H](CCCCN)C(=O)N[C@@H](CCCCN)C(=O)N[C@@H](CCCCN)C(=O)N[C@@H](CCC(=O)O)C(=O)N[C@@H](Cc2c[nH]c3ccccc23)C(=O)N[C@@H](CCCCN)C(=O)N[C@@H](C)C(=O)NCC(=O)N[C@@H](Cc2c[nH]cn2)C(=O)O)NC(=O)[C@H](C)NC(=O)[C@H](CCCCN)NC(=O)[C@H](Cc2ccccc2)NC(=O)[C@H](Cc2ccc(O)cc2)NC(=O)[C@H](C)NC(=O)[C@H](CCC(N)=O)NC(=O)[C@H](CCCNC(=N)N)NC(=O)[C@H](C)NC1=O [compound 448] (H-CDATCQFRKAIDDCARQAYFKACMKQKKKEWKAGH-OH; disulfide 1-5, 14-23), the pIC50 rises from less than 7.00 to greater than 11.00. The second is the more potent here.

Compared with CC[C@H](C)[C@H](NC(=O)[C@H](C)NC(=O)[C@H](CCCCN)NC(=O)[C@H](CCCNC(=N)N)NC(=O)[C@H](Cc1ccccc1)NC(=O)[C@H](CCC(N)=O)NC(=O)[C@@H]1CSSC[C@H](N)C(=O)N[C@@H](CC(=O)O)C(=O)N[C@@H](C)C(=O)N[C@@H]([C@@H](C)O)C(=O)N1)C(=O)N[C@@H](CC(=O)O)C(=O)N[C@@H](CC(=O)O)C(=O)N[C@H]1CSSC[C@@H](C(=O)N[C@@H](CCSC)C(=O)N[C@@H](CCCCN)C(=O)N[C@@H](CCC(N)=O)C(=O)N[C@@H](CCCCN)C(=O)N[C@@H](CCCCN)C(=O)N[C@@H](CCCCN)C(=O)N[C@@H](CCC(=O)O)C(=O)N[C@@H](Cc2c[nH]c3ccccc23)C(=O)N[C@@H](CCCCN)C(=O)N[C@@H](C)C(=O)NCC(=O)N[C@@H](Cc2c[nH]cn2)C(=O)O)NC(=O)[C@H](C)NC(=O)[C@H](CCCCN)NC(=O)[C@H](Cc2ccccc2)NC(=O)[C@H](C)NC1=O [compound 444] (H-CDATCQFRKAIDDCAFKACMKQKKKEWKAGH-OH; disulfide 1-5, 14-19), CC[C@H](C)[C@H](NC(=O)[C@H](C)NC(=O)[C@H](CCCCN)NC(=O)[C@H](CCCNC(=N)N)NC(=O)[C@H](Cc1ccccc1)NC(=O)[C@H](CCC(N)=O)NC(=O)[C@@H]1CSSC[C@H](N)C(=O)N[C@@H](CC(=O)O)C(=O)N[C@@H](C)C(=O)N[C@@H]([C@@H](C)O)C(=O)N1)C(=O)N[C@@H](CC(=O)O)C(=O)N[C@@H](CC(=O)O)C(=O)N[C@H]1CSSC[C@@H](C(=O)N[C@@H](CCSC)C(=O)N[C@@H](CCCCN)C(=O)N[C@@H](CCC(N)=O)C(=O)N[C@@H](CCCCN)C(=O)N[C@@H](CCCCN)C(=O)N[C@@H](CCCCN)C(=O)N[C@@H](CCC(=O)O)C(=O)N[C@@H](Cc2c[nH]c3ccccc23)C(=O)N[C@@H](CCCCN)C(=O)N[C@@H](C)C(=O)NCC(=O)N[C@@H](Cc2c[nH]cn2)C(=O)O)NC(=O)[C@H](C)NC(=O)[C@H](CCCCN)NC(=O)[C@H](Cc2ccccc2)NC(=O)[C@H](CCC(N)=O)NC(=O)[C@H](CCCNC(=N)N)NC(=O)[C@H](C)NC1=O [compound 447] (H-CDATCQFRKAIDDCARQFKACMKQKKKEWKAGH-OH; disulfide 1-5, 14-21) is higher in pIC50: 7.00 to 9.00 for the first, 9.00 to 11.00 for the second.
